Consider 6 compounds from patent US10874719B2, “Nucleotide phosphate dissipation as a treatment for vascular disorders” (THE REGENTS OF THE UNIVERSITY OF MICHIGAN, priority 2007, dated 2020).

In assay [1] the test system is IFN-γ and IL-2 mRNA. Put plainly: Tracheal allograft T-helper 1 cytokine mRNA, real time PCR. Format: in vivo, mouse. Particulars: compared with vehicle; for expression of IFN-γ mRNA: wild type allograft. The source says: A heterotopic model, characterized by epithelial and subepithelial lymphocyte infiltration by one was also used (Lama, et al, Am J Pathol 169: 47-60, 2006). Donor tracheas were harvested as described above. The trachea was inserted in a subcutaneous pouch created after a 3-mm incision and blunt dissection in the back of the neck. The skin pocket was closed with a size 5.0 nylon suture.
Total RNA was extracted from frozen each mouse tracheas using RNeasy Mini Protocol for Tissues (Qiagen, Valencia, Calif.) and reverse transcribed using a High Capacity cDNA Archive Kit (ABI, Foster City, Calif.), in each case according to the manufacturer's instructions. One microgram of sample RNA was transcribed to cDNA. Real-time PCR was performed on an Applied Biosystems 7000 Real-Time PCR System (ABI) data collection system, and analyses were performed using the accompanying software.
PCR fluorogenic probes for all the target genes and the endogenous reference were purchased as TaqMan® Gene Expression Assays (ABI).
A2A receptor agonist 2-p-(2-carboxyethyl) phenethylamino-5′-N-ethylcarboxamidoadenosine (CGS-21680, 2 mg/kg/day), A2A receptor antagonist 5-Amino-7-(β-phenylethyl)-2-([…])pyrazolo(4,3-e)-1,2,4-triazolo1,5-c pyrimidine (SCH-58261, 2 mg/kg/day), A3 receptor agonist [2-chloro-N^6-(3-iodobenzyl)adenosine-5′-N-methyluronamide (Cl-IBMECA 1 mg/kg/day), A3 receptor antagonist 3-Ethyl 5-benzyl 2-methyl-6-phenyl-4-phenylethynyl-1,4-(±)-dihydropyridine-3,5-dicarboxylate (MRS 1191 2 mg/kg/day) or vehicle (0.1% DMSO in PBS) was administered in a sterile 0.1-ml volume by intraperitoneal injection every 12 hours after surgery. The doses of the adenosine-receptor agonists' were chosen according to previous studies (Erdmann, et al, Blood 105: 4707, 4714, 2005; Hasko, et al, Faseb J 14: 2065-2074, 2000; Satoh, et al, Pancreas 24: 75-82, 2002; Satoh, Gastroenterology 119: 829-836, 2000). The adenosine receptor agonists and antagonists were obtained from Sigma Chemicals (St. Louis, Mo.).

The test system of assay [2] is T lymphocytes transmigrating across bEnd.3 endothelial cells. Put plainly: Allomismatched transmigration coculture of endothelial cells and T lymphocytes. Format: cell-based, mouse. The source says:
(§1) T lymphocytes were purified from splenocytes of CD73^+/+ and CD73^−/− mice (H-2^b) using a Dynal mouse T cell negative isolation kit (Invitrogen). The BALB/c (H-2^d)-derived endothelial cell line bEnd.3 was obtained from American Type Culture Collection (Manassas, Va.).
(§2) To further elucidate the effects of CD73 on interactions between endothelial cells and T lymphocytes found in cardiac allografts, we performed an allomismatched coculture of endothelial cells (H-2^d) and lymphocytes (H-2^b; CD73^+/+ or CD73^−/−) with or without APCP in vitro. First, we evaluated the contribution of T lymphocytes to endothelial cells on the simple coculture experiments. […] Next, we evaluated the contribution of endothelial cells to T lymphocytes utilizing transmigration coculture experiments.

For assay [3], the system named is endothelial cell line bEnd.3 with T lymphocytes. Put plainly: Allomismatched simple coculture of endothelial cells and T lymphocytes. Format: cell-based, mouse. The note with it: 72-h coculture with CD73−/− T-lymphocytes, addition of APCP.
Excerpt: as §1, §2

Assay [4] has as its system cardiac allografts. Kind of assay: Heterotopic cardiac transplantation: graft survival. Format: in vivo, mouse. As for the experimental part: Completely allomismatched murine heterotopic cardiac transplantation was performed for the present study, as previously described in detail by us^13. Two groups (n=6 in each group) were used to study donor sources of CD73 (CD73^+/+ or CD73^−/− donors into B10A recipients) and another two groups (n=6 in each group) were used to study recipient sources (B10A donors into CD73^+/+ or CD73^−/− recipients). In experiments of adenosine receptor modulators, CBA/J mice were used as donors or recipients instead of B10A mice (n=4 to 6 in each group, as indicated).
Database management and statistical analysis were performed with the Statview version 5.0 software (SAS institute Inc., Cary, N.C.). All values are expressed as means±SEM. Kaplan-Meier analysis was performed to evaluate graft survival, and survival differences were compared by a log-rank test. Comparisons among groups were performed with an unpaired Student t test or one-way analysis of variance (ANOVA) where appropriate. Values of P<0.05 were considered statistically significant.
(§3) To further evaluate the CD73-mediated contribution of specific AR subtypes during allograft rejection or CAV, we performed heterotopic cardiac transplantation using AR modulators given intraperitoneally. First, we examined which AR is acutely responsible for increased vascular leakage in the murine heterotopic cardiac transplantation model. […] Based on the results of this graft permeability assay, we selected A2AR agonists (A2A, CGS21680; A2B, NECA) to establish their potential effects on cardiac allograft rejection or vasculopathy. […] The next set of experiments was designed to measure the role of the A2BAR in CAV.

Assay [5] has as its system tracheal allografts. Kind of assay: Orthotopic trachea transplant model: graft luminal occlusion and CD3 positive T cell infiltration. Format: in vivo, mouse. The source says: Two well-established tracheal transplant models were used to study the effect of CD73 on the pathogenesis of allograft rejection. The first model was the previously described double lumen airway (orthotopic) transplant model for studying chronic airway rejection (Harada, et al, Am J Physiol Lung Cell Mol Physiol 293: […]-130, 2007; Minamoto, et al, J Exp Med 202: 283-294, 2005). Briefly, after anesthesia, donor mice were exsanguinated, and whole trachea was harvested by transecting below the cricoid cartilage distal to the […] bifurcation under sterile conditions. Recipient mice were similarly anesthetized, and the whole trachea was exposed. Distal (the seventh intercartilaginous space) and proximal (immediately subjacent to the cricoid cartilage area) orifices positioned on the recipient trachea were anastomosed with both ends of the tracheal graft. This air permissive model mimics lymphocytic bronchitis and allows studies focusing on inflammation. All surgeries were performed using a Leitz-Wild surgical microscope (Urban Engineering, Burbank, Calif.) under ×16 magnifications. Grafts were harvested at the indicated time points and embedded en bloc in Tissue Freezing Medium (Triangle Biomedical Sciences, Durham, N.C.) in Disposable Base Molds (Richard-Allan Scientific, Kalamazoo, Mich.) in liquid nitrogen and stored at -80° C. until the time of analysis. For the orthotopic model histochemical staining was performed for elastin (Accustain; Sigma-Aldrich) to determine graft luminal occlusion on 5-μm-thick sections. Immunostaining was also performed using, serial adjacent sections from each group, with primary antibodies directed against a pan-T-cell marker (hamster anti-mouse CD3; BD Pharmingen, San Diego, Calif.). Morphometric measurements of cross-sectional areas were performed by blindly tracing both epithelial and subepithelial areas using a computer-assisted image analysis system (AxoCamHR; Carl Zeiss Microimaging, Thornwood, N.Y.). […]-130, 2007). Quantitative analysis of T cell infiltration was performed by manually counting the number of CD3-positive cells in epithelial and subepithelial layer under high-power magnified fields. […] The doses of the adenosine-receptor agonists' were chosen according to previous studies ([…], et al, Blood 105: 4707, 4714, 2005; Hasko, et al, Faseb J 14: 2065-2074, 2000; Satoh, et al, Pancreas 24: 75-82, 2002; Satoh, Gastroenterology 119: 829-836, 2000). The adenosine receptor agonists and antagonists were obtained from Sigma Chemicals (St. Louis, Mo.).

Assay [6] deals with cardiac allografts. Put plainly: Heterotopic cardiac transplantation: cardiac allograft vasculopathy, luminal occlusion of graft coronary arteries. The note with it: day 30 post-transplantation, both CD73+/+ and CD73−/− donors or recipients, vs wild-type non-treatment controls. Format: in vivo, mouse. How it is done: Completely allomismatched murine heterotopic cardiac transplantation was performed for the present study, as previously described in detail by us^13. Two groups (n=6 in each group) were used to study donor sources of CD73 (CD73^+/+ or CD73^−/− donors into B10A recipients) and another two groups (n=6 in each group) were used to study recipient sources (B10A donors into CD73^+/+ or CD73^−/− recipients). In experiments of adenosine receptor modulators, CBA/J mice were used as donors or recipients instead of B10A mice (n=4 to 6 in each group, as indicated). […]
as §3

[7] abbreviates: CD73−/− donors or recipients, compared with wild-type non-treatment controls.
Setting [8] is: compared with non-treatment controls.

For the compound `CCOC(=O)C1=C(C)NC(c2ccccc2)=C(C(=O)OCc2ccccc2)C1C#Cc1ccccc1` (racemic) [MRS 1191, 3-Ethyl 5-benzyl 2-methyl-6-phenyl-4-phenylethynyl-1,4-(±)-dihydropyridine-3,5-dicarboxylate], the “expression of IFN-γ mRNA” value in assay [1] is listed as “did not affect”.

As to `Nc1ncnc2c1ncn2[C@@H]1O[C@H](COP(=O)(O)CP(=O)(O)O)[C@@H](O)[C@H]1O` [APCP], in assay [2] (24-h coculture of CD73−/− T-lymphocytes), the “transmigration of T-lymphocytes” value is given as “significantly enhanced”. In assay [2] (coculture of CD73−/− T-lymphocytes), the “IFN-γ mRNA upregulation in post-transmigrated T-lymphocytes” value is reported as “no significant enhancement”. For the same compound, in assay [3], the “endothelial cell TNF-α mRNA upregulation” value is reported as “significantly enhanced” and the “endothelial cell VCAM-1 mRNA upregulation” value is “significantly enhanced”.

On to `CCNC(=O)[C@H]1O[C@@H](n2cnc3c(N)nc(NCCc4ccc(CCC(=O)O)cc4)nc32)[C@H](O)[C@@H]1O` [CGS-21680, 2-p-(2-carboxyethyl) phenethylamino-5′-N-ethylcarboxamidoadenosine], for which the graft survival result in assay [4] (setting [7]) was “no significant increase”; in assay [4] (setting [8]) it was “significantly increased”. The “CD3 positive cell infiltrations” value in assay [5] (CD73−/− allografts, mean±SEM) was 79±28; in assay [5] (wild type allografts, compared with vehicle), “less”. This compound came in with a luminal obliteration in assay [5] (CD73−/− allografts, mean±SEM) of 36±3%. In assay [5] (wild type allografts, compared with vehicle, 1 week after transplantation, i.p. every 12 hours), the graft luminal obliteration entry is on record as “significantly reduced”. Also, the “expression of IFN-γ mRNA” value in assay [1] is listed as “down-regulated”. Besides, the “expression of IL-2 mRNA” value in assay [1] (wild type allografts) is on record as “down-regulated”.

`CNC(=O)[C@H]1O[C@@H](n2cnc3c(NCc4cccc(I)c4)nc(Cl)nc32)[C@H](O)[C@@H]1O` [Cl-IBMECA, 2-chloro-N^6-(3-iodobenzyl)adenosine-5′-N-methyluronamide]: the “expression of IFN-γ mRNA” value in assay [1] is listed as “did not affect”.

With `CCNC(=O)[C@H]1O[C@@H](n2cnc3c(N)ncnc32)[C@H](O)[C@@H]1O` [NECA], in assay [6], the “severity of luminal occlusion” value is reported as “significantly attenuated”. Also, the graft survival result in assay [4] (setting [7]) and in assay [4] (setting [8]) was “significantly increased” in each case. Moreover, the “graft survival compared with CGS21680-treated recipients” value in assay [4] (NECA-treated vs CGS21680-treated recipients) is listed as “significantly longer”.

As for `Nc1nc2c(cnn2CCc2ccccc2)c2nc(-c3ccco3)nn12` [SCH-58261, 5-Amino-7-(β-phenylethyl)-2-([…])pyrazolo(4,3-e)-1,2,4-triazolo1,5-c pyrimidine], in assay [1], the “expression of IFN-γ mRNA” value is “did not affect”.
